The subject of assay [1] is U937 cells. The experiment in a line: U937 TNF/zVAD Cytotoxicity Cell Assay. The format is cell-based. As to conditions: Homo sapiens, U-937; TNFα 10 ng/mL + Z-VAD FMK 20 μM, 16-20 hours; read-out: U937 TNF/zVAD Induced Cytotoxicity IC50. As for the experimental part:
Compounds were tested for their ability to prevent TNF induced necroptosis in U937 cells. Treatment with TNF and the caspase inhibitor zVAD-FMK results in the activation and phosphorylation of RIPK1 and subsequent phosphorylation of RIPK3 and MLKL (Mixed Lineage Kinase Domain Like Pseudokinase), leading to induction of necroptotic cell death that is measured as a reduction in cell viability. Similar U937 assay protocols have been previously described; see, e.g., Harris et al., ACS Med. Chem. Letters (2013) 4:1238-1243 and Supplementary Information.
Test compounds were solvated in dimethyl sulfoxide (DMSO) and 3-fold serially diluted from 10 uM to 0.0005 uM with technical duplicates into an empty 384 well plate. U937 cells were resuspended at a concentration of 500,000 cells/mL in fresh RPMI (Roswell Park Memorial Institute) 1640 growth medium containing 10% heat inactivated fetal bovine serum (FB1S) and seeded into a 384 well plate containing compounds and incubated for 1 hour at 37° C. Following incubation, the cells were challenged with TNFα (final concentration of 10 ng/mL) and Z-VAD FMK (N-Benzyloxycarbonyl-Val-Ala-Asp(O-Me) fluoromethyl ketone; final concentration of 20 μM) for 16-20 hours at 37° C. Following the incubation with TNFα/Z-VAD, cells were lysed with Cell Titer-Glo and incubated for 5-10 minutes. The plate was then read on an Envision plate reader. Data was normalized and analyzed with Studies from Dotmatics.

In assay [2] the target is RIPK1 (Homo sapiens (Human), UniProt Q13546). The experiment in a line: RIPK1 Binding Assay. As to conditions: displacement of fluorescent probe, TR-FRET. How it is done: Compounds were tested for their ability to displace a fluorescent probe from recombinant human RIPK1.
RIPK1, sequence (Q13546 1-375): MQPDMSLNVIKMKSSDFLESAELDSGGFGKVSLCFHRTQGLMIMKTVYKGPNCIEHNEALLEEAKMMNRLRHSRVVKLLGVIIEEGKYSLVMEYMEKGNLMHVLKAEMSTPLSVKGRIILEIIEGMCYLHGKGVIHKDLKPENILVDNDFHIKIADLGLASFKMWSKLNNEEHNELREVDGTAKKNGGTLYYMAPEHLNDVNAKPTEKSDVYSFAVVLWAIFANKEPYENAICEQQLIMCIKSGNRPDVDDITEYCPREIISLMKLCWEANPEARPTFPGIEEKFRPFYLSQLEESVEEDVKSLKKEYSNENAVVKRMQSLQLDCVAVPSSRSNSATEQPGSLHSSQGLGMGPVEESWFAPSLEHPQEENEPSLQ
Recombinant human RIPK1 (1-375) was prepared as described in Harris et al., ACS Med. Chem. Letters (2013) 4:1238-1243 (Supplementary Information), with the following exceptions: (i) instead of using the gene sequence from NM_003804.3, the gene was synthesized with codon optimization for BEV expression system, and (ii) the gene was cloned into the vector pFastBac1, not pDEST8.
A fluorescent probe containing an Oregon green fluorophore was synthesized from a compound known to bind to RIPK1.
The assay was performed in a buffer containing 50 mM N-2-Hydroxyethylpiperazine-N′-2-ethanesulfonic acid (HEPES) (pH 7.5), 10 mM MgCl2, 1 mM ethylene diamine tetraacetic acid (EDTA), and 0.01% BRIJ-35 (Polyoxyethylene (23) lauryl ether). Test compounds were solvated in dimethyl sulfoxide (DMSO) at final concentrations 4-fold serially diluted from 100 to 0.000095 uM in technical duplicates into an empty 384 well plate. Recombinant RIPK1 (final concentration of 2.5 nM) was added to the wells and incubated with test compound for 1 hour at room temperature. A solution containing the fluorescent probe (final concentration 5 nM) and an LanthaScreen Tb-anti-GST antibody (Thermofisher Scientific; final concentration of 5 nM) was then added to each well, with the Tb-anti-GST antibody binding to the GST portion of the recombinant RIPK1 and providing the corresponding FRET pair to the fluorescent probe. The plate was incubated for 1 hour at room temperature and read on an Envision plate reader using a time resolved FRET protocol. Data was normalized and analyzed using Studies from Dotmatics.
On the technique in general: TR-FRET usually uses a lanthanide donor and a delayed reading to cut background.

Structures are written as SMILES. pIC50: −log10 of the molar value.

As to `CN(C[C@@H](O)[C@@H](F)c1ccccc1)C(=O)c1cncc(C#Cc2cnn(C)c2)c1` [Example 7, N-((2R,3S)-3-fluoro-2-hydroxy-3-phenylpropyl)-N-methyl-5-((1-methyl-1H-pyrazol-4-yl)ethynyl)nicotinamide], the figures for the pIC50 in assay [1] and in assay [2] were 8.05 and 8.15, respectively.

For the compound `CN(C[C@@H](O)Cc1cccc(F)c1)C(=O)c1cncc(C#Cc2cnn(C)c2)c1` [Example 12, (S)-N-(3-(3-fluorophenyl)-2-hydroxypropyl)-N-methyl-5-((1-methyl-1H-pyrazol-4-yl)ethynyl)nicotinamide], the pIC50 is 7.70 in assay [1] and 7.89 in assay [2]. The like results for `CN(C[C@@H](O)Cc1ccccc1)C(=O)c1cncc(C#Cc2cnn(C)c2C2CC2)c1` [Example 11, (S)-5-((5-cyclopropyl-1-methyl-1H-pyrazol-4-yl)ethynyl)-N-(2-hydroxy-3-phenylpropyl)-N-methylnicotinamide] were, in that order, 8.30 and 8.70.

`COc1ncc(C(=O)N(C)C[C@@H](O)Cc2ccccc2)cc1C#Cc1cnn(C)c1` [Example 13, (S)-N-(2-hydroxy-3-phenylpropyl)-6-methoxy-N-methyl-5-((1-methyl-1H-pyrazol-4-yl)ethynyl)nicotinamide]: the pIC50 is 6.42 in assay [1] and 7.02 in assay [2].

`CN(C[C@@H](O)Cc1ccccc1)C(=O)c1cncc(C#Cc2cnn(C3COC3)n2)c1` [Example 10, (S)-N-(2-hydroxy-3-phenylpropyl)-N-methyl-5-((2-(oxetan-3-yl)-2H-1,2,3-triazol-4-yl)ethynyl)nicotinamide]: the results for the pIC50 in assay [1] and in assay [2] were 6.42 and 7.37, respectively.

As to `CN(C[C@@H](O)Cc1ccccc1)C(=O)c1cncc(C#Cc2cnn(C(F)(F)F)c2)c1` [Example 4, (S)-N-(2-hydroxy-3-phenylpropyl)-N-methyl-5-((1-(trifluoromethyl)-1H-pyrazol-4-yl)ethynyl)nicotinamide], the pIC50 is 6.70 in assay [1] and 7.52 in assay [2].

The compound `Cc1ncc(C#Cc2cncc(C(=O)N(C)C[C@@H](O)Cc3ccccc3)c2)s1` [Example 15, (S)-N-(2-hydroxy-3-phenylpropyl)-N-methyl-5-((2-methylthiazol-5-yl)ethynyl) nicotinamide] showed a pIC50 in assay [2] of 4.60. Turning to `CN(CC(O)Cc1ccccc1)C(=O)c1cnc(C(F)F)c(C#Cc2cnn(C)c2)c1` (stereo in doubt) [Example 9, (S)-6-(difluoromethyl)-N-(2-hydroxy-3-phenylpropyl)-N-methyl-5-((1-methyl-1H-pyrazol-4-yl)ethynyl)nicotinamide], the pIC50 in assay [1] is 7.54; in assay [2], 7.74. Turning to `Cc1c(C#Cc2cncc(C(=O)N(C)C[C@@H](O)Cc3ccccc3)c2)cnn1C(F)F` [Example 26, (S)-5-((1-(difluoromethyl)-5-methyl-1H-pyrazol-4-yl)ethynyl)-N-(2-hydroxy-3-phenylpropyl)-N-methylnicotinamide], the pIC50 in assay [1] was 8.52; in assay [2], 8.74. Turning to `CN(C[C@@H](O)Cc1ccccc1)C(=O)c1cncc(C#Cc2cnn(C)c2)c1` [Example 1, (S)-N-(2-hydroxy-3-phenylpropyl)-N-methyl-5-((1-methyl-1H-pyrazol-4-yl)ethynyl)nicotinamide], the pIC50 in assay [1] is 7.47.

With `CN(C[C@@H](O)Cc1ccccc1)C(=O)c1cncc(C#Cc2cnn(C3CC3)c2)c1` [Example 5, (S)-5-((1-cyclopropyl-1H-pyrazol-4-yl)ethynyl)-N-(2-hydroxy-3-phenylpropyl)-N-methylnicotinamide], the pIC50 in assay [1] was 7.31; in assay [2], 7.85. `CN(C[C@@H](O)Cc1ccccc1)C(=O)c1cncc(C#Cc2cnn(C3CCC3)c2)c1` [Example 6, (S)-5-((1-cyclobutyl-1H-pyrazol-4-yl)ethynyl)-N-(2-hydroxy-3-phenylpropyl)-N-methylnicotinamide]: the pIC50 in assay [1] is 8.22; in assay [2], 8.52.

Take `Cc1ncc(C#Cc2cncc(C(=O)N(C)C[C@@H](O)Cc3ccccc3)c2)o1` [Example 17, (S)-N-(2-hydroxy-3-phenylpropyl)-N-methyl-5-((2-methyloxazol-5-yl)ethynyl)nicotinamide]: the pIC50 in assay [1] is 6.84; in assay [2] it was 7.49.

With `CN(C[C@@H](O)Cc1ccccc1)C(=O)c1cncc(C#Cc2cnn3c2COCC3)c1` [Example 8, (S)-5-((6,7-Dihydro-4H-pyrazolo[5,1-c][1,4]oxazin-3-yl)ethynyl)-N-(2-hydroxy-3-phenylpropyl)-N-methylnicotinamide], the pIC50 in assay [1] was 7.89; in assay [2], 8.22. `CN(C[C@@H](O)Cc1ccccc1)C(=O)c1cncc(C#Cc2cnn(C)n2)c1` [Example 3, (S)-N-(2-hydroxy-3-phenylpropyl)-N-methyl-5-((2-methyl-2H-1,2,3-triazol-4-yl)ethynyl)nicotinamide]: the pIC50 in assay [1] was 6.71; in assay [2], 7.44.

Source of the values: US11767310B2, “Nicotinamide RIPK1 inhibitors” (AbbVie Inc., priority 2021, dated 2023).
